Experimental data from patent US20190119284A1, “ErbB Inhibitors and Uses Thereof” (The Regents of the University of California, priority 2016, published 2019).
Where two headings read alike, the source gives them in different places.

Assays:
[1] = biological target: 2YF/3wt + NRG Ba/F3 cells (HER2YF/HER3wt) (Homo sapiens, UniProt P04626, Y1005F/Y1023F/Y1112F/Y1127F/Y1139F/Y1196F/Y1221F/Y1222F/Y1248F, cells depend on it); assay: Ba/F3 proliferation assay, 2YF/3wt + NRG; type: cell-based
Source text: Ba/F3 cells are normally dependent on IL-3 signaling for their proliferation and survival, but can be made dependent on introduced oncogenic signals. We sequentially selected transduced Ba/F3 cells for populations stably expressing HER3 and then HER2. To ensure that all of the proliferative signal could be attributed to HER2/HER3 heterodimers, rather than HER2 homodimers, the 9 C-terminal tyrosines in HER2 were mutated to phenylalanine (HER2YF). We then withdrew IL-3 and supplemented the media with NRG to select for NRG dependent HER2YF/HER3wt cells (2YF/3wt).
For the 2YF/3wt cells, the parental cells were first transduced with HER3 according to the protocol above and were then spun down at 500×g for 5 min and re-suspended in media supplemented with 10 ng/mL IL-3 and 3 μg/mL puromycin (Invitrogen). Cells were maintained in these conditions for seven days, passaging as required. After seven days the cells were spun down, washed with fresh media, and then used for a subsequent round of transduction according to the protocol above with HER2YF virus. […] The cells were maintained in these conditions for seven days, passaging as required. After seven days the cells were spun down, washed with fresh media, and then suspended in media supplemented with 10 ng/mL of NRG. Cells were maintained in these conditions for seven days to select for a NRG dependent population of 2YF/3wt Ba/F3 cells that were then maintained as described above. The same protocol was used for the 2YF-L755S/3wt, 2YF-YVMA/3wt, and 2YF-VC/3wt cell lines using the indicated constructs.
Proliferation Assays. […] The following day media was changed to fresh media that contained either DMSO or the indicated concentration of drug plus NRG (50 ng/mL final concentration) as indicated. […] For all normalized assays, proliferation was normalized to the DMSO control condition. All graphs were plotted in GraphPad Prism 6 and fit with a non-linear regression of the log(inhibitor) vs response with a variable slope where shown. All graphs are averages (+/−standard deviation) of biological triplicates each performed in technical triplicate unless otherwise noted. If only one biological replicate was performed standard deviations were derived from the technical replicates.

[2] = biological target: T1, Axl+ Ba/F3 cells (Homo sapiens, UniProt P30530); assay: Ba/F3 proliferation assay, Axl+; type: cell-based
T1 sequence (P30530 1-894): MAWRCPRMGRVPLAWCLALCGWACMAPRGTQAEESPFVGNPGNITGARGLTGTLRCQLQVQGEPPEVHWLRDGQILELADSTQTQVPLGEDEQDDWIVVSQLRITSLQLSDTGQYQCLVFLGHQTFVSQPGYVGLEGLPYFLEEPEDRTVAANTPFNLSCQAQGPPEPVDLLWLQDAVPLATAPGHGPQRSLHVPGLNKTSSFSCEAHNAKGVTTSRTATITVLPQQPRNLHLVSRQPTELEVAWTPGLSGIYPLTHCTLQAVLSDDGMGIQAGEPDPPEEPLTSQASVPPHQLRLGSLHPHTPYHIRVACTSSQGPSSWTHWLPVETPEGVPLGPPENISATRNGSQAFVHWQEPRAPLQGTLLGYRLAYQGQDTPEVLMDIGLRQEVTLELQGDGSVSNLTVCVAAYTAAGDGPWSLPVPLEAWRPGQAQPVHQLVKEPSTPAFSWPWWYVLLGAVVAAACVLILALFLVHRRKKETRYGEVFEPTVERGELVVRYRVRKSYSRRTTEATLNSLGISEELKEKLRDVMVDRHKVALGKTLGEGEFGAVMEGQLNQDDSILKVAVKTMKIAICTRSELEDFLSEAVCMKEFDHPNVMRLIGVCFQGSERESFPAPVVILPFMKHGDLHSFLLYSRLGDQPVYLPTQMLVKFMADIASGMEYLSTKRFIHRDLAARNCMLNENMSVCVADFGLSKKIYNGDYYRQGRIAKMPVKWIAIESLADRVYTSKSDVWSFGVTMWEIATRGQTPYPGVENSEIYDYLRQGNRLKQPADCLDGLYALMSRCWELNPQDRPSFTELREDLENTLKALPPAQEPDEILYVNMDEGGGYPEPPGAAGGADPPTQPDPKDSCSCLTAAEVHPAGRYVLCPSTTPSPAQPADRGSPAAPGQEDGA
Experimental: (§1) To validate the screen and test the effectiveness of counter-screening with either the same 2YF/3wt Ba/F3 cell line or the parental Ba/F3's in the presence of IL-3 to remove cytotoxic primary hits, we first tested a panel of kinase inhibitors with established mechanisms of action.
For Axl+ cells, the transduced cells were spun down at 500×g for 5 min and resuspended in media supplemented with 10 ng/mL IL-3 and 3 μg/mL puromycin (Invitrogen). Cells were maintained in these conditions for 7 days, passaging as required. After 7 days the cells were spun down, washed with fresh media, and then suspended in IL-3 free media. The cells were maintained in these conditions for 2 weeks to select for an IL-3 independent population of Axl+ driven cells.
(§2) Proliferation Assays. For adherent cell lines, cells were plated onto opaque white 96 well plates (Greiner cat #655083) and allowed to adhere overnight. The following day media was changed to fresh media that contained either DMSO or the indicated concentration of drug plus NRG (50 ng/mL final concentration) as indicated. Plates were incubated at 37° C. for 72 h and proliferation was read out using Cell Titer Glo (Promega) according to the manufacturer's protocol. For Ba/F3 cell proliferation, cells, drug dilution, and any necessary growth factors (10 ng/mL IL-3 or 6.25 ng/mL NRG) were combined in a well of a 96 well plate. Plates were incubated at 37° C. for 48 h and proliferation was read out using Cell Titer Glo according to the manufacturer's protocol. For all normalized assays, proliferation was normalized to the DMSO control condition. All graphs were plotted in GraphPad Prism 6 and fit with a non-linear regression of the log(inhibitor) vs response with a variable slope where shown. All graphs are averages (+/−standard deviation) of biological triplicates each performed in technical triplicate unless otherwise noted. If only one biological replicate was performed standard deviations were derived from the technical replicates.

[3] = system: HER2YF/HER3E928G (2YF/3EG) Ba/F3 cells; assay: Ba/F3 proliferation assay, 2YF/3EG +/- NRG; type: cell-based; conditions: + NRG vs no NRG
Source text: Consistent with the results in the HER2 overexpressing cell lines, CW-2 cells that harbor a HER3-activating mutation were equally sensitive to compound 3+/−NRG in both proliferation and signaling assays (FIGS. 6A-6B). […] To further evaluate the potential of compound 3 against HER2 mutants within a HER2/HER3 heterodimer we transduced wt HER3 containing Ba/F3 cells with reported HER2 oncogenic mutants in the HER2YF construct.
For HER2YF/3EG Ba/F3 cells were selected according to the protocol for the HER2YF/3TM Ba/F3's with the exception that no NRG was supplemented in the media during IL-3 independent selection.
as §2

[4] = system: 2YF/3wt + IL-3 Ba/F3 cells; assay: Ba/F3 proliferation assay, 2YF/3wt + IL-3; type: cell-based; conditions: Mus musculus, BaF3; Table 4; ± S.D., n = 3; 48 h Cell Titer Glo
Experimental: as §1, §2

[5] = system: parental Ba/F3 cells + IL-3; assay: Ba/F3 proliferation assay, Parental + IL-3; type: cell-based; conditions: Mus musculus, BaF3; Tables 7 and 8; read-out: Ba/F3 line IC50, Parental + IL-3
Experimental: as §1, §2

[6] = system: HCC827; assay: HCC827 cell viability; type: cell-based; conditions: Homo sapiens, compound at 1 nM, n in the line below, read-out: HCC827 (% viable at 1 nM)
[7] = system: HER2+/2VE Ba/F3 line; assay: Ba/F3 proliferation assay, HER2+/2VE; type: cell-based; conditions: Mus musculus, BaF3; Tables 7 and 8
Experimental: as §2

[8] = system: NCI-H1975; assay: NCI-H1975 cell proliferation; type: cell-based; conditions: Homo sapiens, Table 8, n in the line below
[9] = system: A431; assay: A431 cell proliferation; type: cell-based; conditions: Homo sapiens, A-431; Table 8; n in the line below
[10] = system: Ba/F3 cell line panel (HER2YF/HER3); assay: 48 h proliferation of the Ba/F3 cell line panel (CellTiter-Glo); type: cell-based; conditions: 48 h proliferation curves
Experimental: FIGS. 3A-3D. Design and execution of a high-throughput screen identifies a novel HER2/HER3 inhibitor. FIG. 3A: 2YF/3wt cells were incubated in the presence or absence of NRG for 48 h and proliferation was assessed by CellTiter-Glo (mean±SD, n=1). […] FIG. 3C: Structure and proliferation curves for hit compound 1 (also referred herein as compound 185) against the Ba/F3 cell line panel (mean±SD, n=3), FIG. 3D: Structure and proliferation curves for compound 2 (also referred to herein as compound 55A) against the panel of Ba/F3 cell lines (mean±SD, n=3).
FIGS. 4A-4F. Compound 2 is a selective Type I inhibitor for HER2. […] FIG. 4B: Thermal stabilization of the HER3 kinase domain by either compound 2 or ATP as determined by Thermofluor (mean±SD, n=3). FIGS. 4C-4D: The crystal structure of either erlotinib (FIG. 4C) or 2 (FIG. 4D) bound to EGFR V924R. The kinase domain in complex with compound 2 has been stabilized in the active confirmation by drug binding, despite the mutation—as evidenced by the ordered extension of the activation loop and the inward positioning of the α-C helix.
FIGS. 5A-5D. […] FIG. 5A: Chemical structure of compound 3 (also referred to herein as compound 178). FIG. 5B: Proliferation curves for compound 3 against the Ba/F3 cell line panel (mean±SD, n=3). […] FIG. 5D: The same assay in FIG. 2A was performed with compound 3 in SK-BR-3 cells.
FIG. 10. […]

[11] = Mouse Liver Microsome stability assay; type: in vitro ADME; conditions: mouse liver microsomes
[12] = Tables 7 and 8, read-out: Ba/F3 line IC50, HER2YF/HER3 + NRG
[13] = Tables 7 and 8, read-out: Ba/F3 line IC50, Axl+

Sequence of 2YF/3wt + NRG Ba/F3 cells (HER2YF/HER3wt) (P04626 whole entry Y1005F/Y1023F/Y1112F/Y1127F/Y1139F/Y1196F/Y1221F/Y1222F/Y1248F): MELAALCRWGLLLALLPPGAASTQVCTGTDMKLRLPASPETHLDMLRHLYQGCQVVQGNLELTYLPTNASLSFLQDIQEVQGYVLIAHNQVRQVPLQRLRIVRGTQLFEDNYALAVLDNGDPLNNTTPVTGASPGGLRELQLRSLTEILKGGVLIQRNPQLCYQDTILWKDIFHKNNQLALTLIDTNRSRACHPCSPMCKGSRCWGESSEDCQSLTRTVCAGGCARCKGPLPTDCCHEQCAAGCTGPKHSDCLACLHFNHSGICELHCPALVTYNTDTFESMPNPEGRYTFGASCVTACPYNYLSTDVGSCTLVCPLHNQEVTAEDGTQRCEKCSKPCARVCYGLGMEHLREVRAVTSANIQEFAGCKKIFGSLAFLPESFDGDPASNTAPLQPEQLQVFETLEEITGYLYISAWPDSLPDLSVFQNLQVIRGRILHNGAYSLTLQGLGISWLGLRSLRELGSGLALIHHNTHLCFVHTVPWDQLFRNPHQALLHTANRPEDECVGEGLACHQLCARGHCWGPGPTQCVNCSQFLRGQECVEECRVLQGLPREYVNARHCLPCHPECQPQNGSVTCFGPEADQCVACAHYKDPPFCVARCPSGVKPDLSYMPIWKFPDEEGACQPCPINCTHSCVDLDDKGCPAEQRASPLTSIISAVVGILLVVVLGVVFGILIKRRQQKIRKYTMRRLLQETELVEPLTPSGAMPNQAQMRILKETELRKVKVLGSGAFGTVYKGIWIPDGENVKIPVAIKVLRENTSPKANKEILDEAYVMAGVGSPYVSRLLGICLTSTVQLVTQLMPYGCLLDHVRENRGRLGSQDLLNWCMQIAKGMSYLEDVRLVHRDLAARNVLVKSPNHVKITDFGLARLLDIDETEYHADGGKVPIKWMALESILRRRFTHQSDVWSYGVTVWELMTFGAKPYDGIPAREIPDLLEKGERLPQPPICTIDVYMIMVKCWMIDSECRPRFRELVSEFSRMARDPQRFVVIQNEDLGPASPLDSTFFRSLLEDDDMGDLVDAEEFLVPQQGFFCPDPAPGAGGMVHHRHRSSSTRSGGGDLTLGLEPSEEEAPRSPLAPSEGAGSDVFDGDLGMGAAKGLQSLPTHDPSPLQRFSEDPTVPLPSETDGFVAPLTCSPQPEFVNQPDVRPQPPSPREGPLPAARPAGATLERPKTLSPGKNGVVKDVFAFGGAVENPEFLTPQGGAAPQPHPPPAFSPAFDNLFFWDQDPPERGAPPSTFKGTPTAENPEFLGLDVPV

Row | Compound | GI50 ([1]; Table 4, ± S.D., n = 3, 48 h Cell Titer Glo, read-out: IC50, 2YF/3wt + NRG) [nM] | GI50 ([2]; Table 4, ± S.D., n = 3, 48 h Cell Titer Glo, read-out: IC50, Axl) [nM] | IC50 [4] [nM] | GI50 [1, 12] [nM] | GI50 [2, 13] [nM] | IC50 [7] [nM] | IC50 [8] [nM] | IC50 [9] [nM] | WuXi Microsomal stability (Mouse Extraction Ratio) [11] | reduction of sensitivity on addition of NRG [3] [fold] | IC50 [5] [nM] | viability at 0.001 µM [6] [%] | level of pathway inhibition distinguished by the Ba/F3 panel [10]
1 | CC(C)(O)CC(=O)NCCn1ccc2ncnc(Nc3ccc(Oc4cccc(C(F)(F)F)c4)c(Cl)c3)c21 [TAK-285, reference compound] | 399 ± 111 | > 3330 | > 10000 |  |  |  |  |  |  | 40 |  |  | 
2 | COc1ccc(-c2ccccn2)cc1Nc1ncnc2[nH]cc(-c3cc[nH]n3)c12 [8-090] |  |  |  | 227 | 1570 | 895 | 2540 | 911 |  |  | 2250 | 102 | 
3 | CC(=O)Nc1nc(C)c(-c2ccc(Cl)c(S(=O)(=O)NCCO)c2)s1 [PIK-93] |  |  |  |  |  |  |  |  |  |  |  |  | hit downstream
4 | CN(C)c1ccc(-c2ccsc2)cc1Nc1ncnc2[nH]nc(-c3cc[nH]n3)c12 [104A] |  |  |  | 1.5 | 844 | 48.5 | 720 ± 30 | 330 ± 125 | 0.87 |  | 1600 | 29.8 ± 2.7 | 

Now from value to compound, other results behind:

Row | GI50 ([1]; Table 4, ± S.D., n = 3, 48 h Cell Titer Glo, read-out: IC50, 2YF/3wt + NRG) [nM] | GI50 ([2]; Table 4, ± S.D., n = 3, 48 h Cell Titer Glo, read-out: IC50, Axl) [nM] | IC50 [4] [nM] | GI50 [1, 12] [nM] | GI50 [2, 13] [nM] | IC50 [7] [nM] | IC50 [8] [nM] | IC50 [9] [nM] | WuXi Microsomal stability (Mouse Extraction Ratio) [11] | Compound | reduction of sensitivity on addition of NRG [3] [fold] | IC50 [5] [nM] | viability at 0.001 µM [6] [%] | level of pathway inhibition distinguished by the Ba/F3 panel [10]
5 |  |  |  | 2 | 501 | 31.4 | 891 ± 18.6 | 471 ± 63.4 |  | COc1ccc(-c2ccccc2)cc1Nc1ncnc2[nH]nc(-c3cc[nH]n3)c12 [8-096] |  | 1540 | 30.6 ± 4.2 | 
6 |  |  |  | 1 | 612 | 13.7 | 507 ± 85.1 | 290 ± 71 |  | COc1ccc(-c2ccccc2)cc1Nc1ncnc2[nH]nc(-c3ccn(C)n3)c12 [8-097] |  | 1770 | 29.5 ± 7.1 | 
